Experimental data published in patent US20020026053A1, “Novel 3-(substituted) -2- indolinones compounds and use thereof as inhibitors of protein kinase activity” (priority 1997, published 2002).

System: FLK-1 receptor
Test: FLK-1 Assay (cellular/catalytic ELISA, VEGF-stimulated phosphotyrosine)
Type: cell-based
Design: concentration or dose not given beside the values
In short: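 NIH3T3 C7#3 cells engineered to express Flk-1 were serum-starved overnight (0.1% FBS), then exposed to compound for 2 h at 37 °C (final dilution 1:200, 0.5% DMSO) before VEGF stimulation. Lysates captured on anti-FLK-1 antiserum plates; phosphotyrosine detected by UB40 antibody/POD-ABTS ELISA versus untreated controls.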

Row | SMILES | Flk Kinase % Inhibition (P.110)
1 | Cc1c(O)ccc(C=C2C(=O)Nc3c(Br)cc(Br)c(C)c32)c1O [10718/H09] | −5.0%
2 | Cc1c(Br)cc(Br)c2c1C(=Cc1ccco1)C(=O)N2 [10718/H10] | 1.4%
3 | Cc1c(Br)cc(Br)c2c1C(=Cc1ccc([N+](=O)[O-])o1)C(=O)N2 [10718/H11] | 13.0%
4 | CCOc1ccc(C=C2C(=O)Nc3c(Br)cc(Br)c(C)c32)cc1OC [10719/H02] | 22.0%
5 | Cc1c(Br)cc(Br)c2c1C(=Cc1ccc(O)c(O)c1)C(=O)N2 [10719/H03] | −40.4%
6 | COc1ccc(C=C2C(=O)Nc3c(Br)cc(Br)c(C)c32)c(OC)c1 [10719/H04] | 3.4%
7 | CCc1c(C)[nH]c(C=C2C(=O)Nc3c(Br)cc(Br)c(C)c32)c1C [10719/H05] | 18.5%
8 | COc1cc(OC)c(C=C2C(=O)Nc3c(Br)cc(Br)c(C)c32)c(OC)c1 [10719/H06] | 17.8%
9 | CCN(CC)c1ccc(C=C2C(=O)Nc3c(Br)cc(Br)c(C)c32)c(O)c1 [10734/H05] | 1.6%
10 | Cc1c(Br)cc(Br)c2c1C(=Cc1ccc([N+](=O)[O-])cc1)C(=O)N2 [10734/H06] | 2.6%
11 | Cc1c(Br)cc(Br)c2c1C(=Cc1cc(Br)cc(Br)c1O)C(=O)N2 [10734/H07] | 1.4%
12 | Cc1c(Br)cc(Br)c2c1C(=Cc1cccc(F)c1O)C(=O)N2 [10734/H08] | −2.2%
13 | Cc1c(Br)cc(Br)c2c1C(=Cc1ccc(O)c(Br)c1)C(=O)N2 [10734/H09] | −2.2%
14 | Cc1c(Br)cc(Br)c2c1C(=Cc1ccc(C(C)(C)C)cc1)C(=O)N2 [10734/H10] | 3.9%
15 | Cc1c(Br)cc(Br)c2c1C(=Cc1ccc(Br)s1)C(=O)N2 [10734/H11] | 9.9%
16 | Cc1ccccc1C=C1C(=O)Nc2c(Br)cc(Br)cc21 [10735/A02] | −13.4%
17 | O=C1Nc2c(Br)cc(Br)cc2C1=Cc1ccc(F)c(F)c1 [10735/A03] | −1.0%
18 | O=C1Nc2c(Br)cc(Br)cc2C1=Cc1cc(F)cc(F)c1 [10735/A04] | −20.8%
19 | O=C1Nc2c(Br)cc(Br)cc2C1=Cc1cccc(C(F)(F)F)c1 [10735/A05] | −12.2%
20 | O=C1Nc2c(Br)cc(Br)cc2C1=Cc1cc(C(F)(F)F)cc(C(F)(F)F)c1 [10735/A06] | −8.5%

Row | SMILES | Flk Kinase % Inhibition (P.110)
21 | N#Cc1ccccc1C=C1C(=O)Nc2c(Br)cc(Br)cc21 [10735/A07] | −1.3%
22 | O=C1Nc2c(Br)cc(Br)cc2C1=Cc1c(F)cccc1F [10735/A08] | −19.6%
23 | O=C1Nc2c(Br)cc(Br)cc2C1=Cc1cccc2ccccc12 [10735/A09] | −6.3%
24 | O=C1Nc2c(Br)cc(Br)cc2C1=Cc1ccc(Cl)cc1Cl [10735/A10] | 2.2%
25 | O=C1Nc2c(Br)cc(Br)cc2C1=Cc1ccc(-c2ccccc2)cc1 [10735/A11] | 2.2%
26 | Cc1ccccc1C=C1C(=O)Nc2ccc(I)cc21 [10735/B02] | 1.1%
27 | O=C1Nc2ccc(I)cc2C1=Cc1ccc(F)c(F)c1 [10735/B03] | −14.3%
28 | O=C1Nc2ccc(I)cc2C1=Cc1cc(F)cc(F)c1 [10735/B04] | 6.1%
29 | O=C1Nc2ccc(I)cc2C1=Cc1cccc(C(F)(F)F)c1 [10735/B05] | 7.4%
30 | O=C1Nc2ccc(I)cc2C1=Cc1cc(C(F)(F)F)cc(C(F)(F)F)c1 [10735/B06] | 17.5%
31 | N#Cc1ccccc1C=C1C(=O)Nc2ccc(I)cc21 [10735/B07] | −5.9%
32 | O=C1Nc2ccc(I)cc2C1=Cc1c(F)cccc1F [10735/B08] | 1.6%
33 | O=C1Nc2ccc(I)cc2C1=Cc1cccc2ccccc12 [10735/B09] | 15.9%
34 | O=C1Nc2ccc(I)cc2C1=Cc1ccc(Cl)cc1Cl [10735/B10] | 9.2%
35 | O=C1Nc2ccc(I)cc2C1=Cc1ccc(-c2ccccc2)cc1 [10735/B11] | 15.7%
36 | Cc1ccccc1C=C1C(=O)Nc2ccc(Br)c(C)c21 [10735/C02] | 0.1%
37 | Cc1c(Br)ccc2c1C(=Cc1ccc(F)c(F)c1)C(=O)N2 [10735/C03] | 0.9%
38 | Cc1c(Br)ccc2c1C(=Cc1cc(F)cc(F)c1)C(=O)N2 [10735/C04] | 17.2%
39 | Cc1c(Br)ccc2c1C(=Cc1cccc(C(F)(F)F)c1)C(=O)N2 [10735/C05] | 11.2%
40 | Cc1c(Br)ccc2c1C(=Cc1cc(C(F)(F)F)cc(C(F)(F)F)c1)C(=O)N2 [10735/C06] | 18.2%

Row | SMILES | Flk Kinase % Inhibition (P.110)
41 | Cc1c(Br)ccc2c1C(=Cc1ccccc1C#N)C(=O)N2 [10735/C07] | 9.6%
42 | Cc1c(Br)ccc2c1C(=Cc1c(F)cccc1F)C(=O)N2 [10735/C08] | 10.1%
43 | Cc1c(Br)ccc2c1C(=Cc1cccc3ccccc13)C(=O)N2 [10735/C09] | 24.5%
44 | Cc1c(Br)ccc2c1C(=Cc1ccc(Cl)cc1Cl)C(=O)N2 [10735/C10] | 21.0%
45 | Cc1c(Br)ccc2c1C(=Cc1ccc(-c3ccccc3)cc1)C(=O)N2 [10735/C11] | 18.6%
46 | CNS(=O)(=O)c1ccc2c(c1)C(=Cc1ccccc1C)C(=O)N2 [10735/D02] | 0.9%
47 | CNS(=O)(=O)c1ccc2c(c1)C(=Cc1ccc(F)c(F)c1)C(=O)N2 [10735/D03] | 4.5%
48 | CNS(=O)(=O)c1ccc2c(c1)C(=Cc1cc(F)cc(F)c1)C(=O)N2 [10735/D04] | 9.1%
49 | CNS(=O)(=O)c1ccc2c(c1)C(=Cc1cccc(C(F)(F)F)c1)C(=O)N2 [10735/D05] | 29.5%
50 | CNS(=O)(=O)c1ccc2c(c1)C(=Cc1cc(C(F)(F)F)cc(C(F)(F)F)c1)C(=O)N2 [10735/D06] | 16.2%
51 | CNS(=O)(=O)c1ccc2c(c1)C(=Cc1ccccc1C#N)C(=O)N2 [10735/D07] | 21.6%
52 | CNS(=O)(=O)c1ccc2c(c1)C(=Cc1c(F)cccc1F)C(=O)N2 [10735/D08] | 21.6%
53 | CNS(=O)(=O)c1ccc2c(c1)C(=Cc1cccc3ccccc13)C(=O)N2 [10735/D09] | 22.6%
54 | CNS(=O)(=O)c1ccc2c(c1)C(=Cc1ccc(Cl)cc1Cl)C(=O)N2 [10735/D10] | 15.1%
55 | CNS(=O)(=O)c1ccc2c(c1)C(=Cc1ccc(-c3ccccc3)cc1)C(=O)N2 [10735/D11] | 25.1%
56 | Cc1ccccc1C=C1C(=O)Nc2ccc(S(=O)(=O)Nc3ccc(C(F)(F)F)cc3)cc21 [10735/E02] | −2.0%
57 | O=C1Nc2ccc(S(=O)(=O)Nc3ccc(C(F)(F)F)cc3)cc2C1=Cc1ccc(F)c(F)c1 [10735/E03] | 5.1%
58 | O=C1Nc2ccc(S(=O)(=O)Nc3ccc(C(F)(F)F)cc3)cc2C1=Cc1cc(F)cc(F)c1 [10735/E04] | 12.2%
59 | O=C1Nc2ccc(S(=O)(=O)Nc3ccc(C(F)(F)F)cc3)cc2C1=Cc1cccc(C(F)(F)F)c1 [10735/E05] | 14.7%
